Experimental data published in patent US6811970B2, “Assay for identifying inhibitors of HIV RT dimerization” (priority 2001, dated 2004).

Columns and labels:
HIV-1 RT = HIV-1 RT (Human immunodeficiency virus type 1 group M subtype B, UniProt P04585); conditions: Tachedjian et al., 2001, PNAS, 7188-7193; cited from earlier work
[1] = molecular target: T1, unlabeled P2C/C38S/C280S p66/p66 RT (Human immunodeficiency virus type 1 group M subtype B, UniProt P04585, C625S/C867S/P588C); assay: Inhibition of unlabeled P2C/C38S/C280S p66/p66 RT by HIV RT inhibitors; assay type: biochemical, HIV-1
T1 construct: made in house; host or cells: E. coli JM109 (pKK-RT66-P2C)

[2] = molecular target: T2, Eu^3+-labeled P2C/C38S/C280S p66/p66 RT (Human immunodeficiency virus type 1 group M subtype B, UniProt P04585, C625S/C867S/P588C); assay: Inhibition of Eu3+-labeled P2C/C38S/C280S p66/p66 RT by HIV RT inhibitors; assay type: biochemical, HIV-1; conditions: P2C/C38S/C280S p66/p66 RT alkylated with Eu-N1-iodoacetamido chelate
T2 construct: made in house; host or cells: E. coli JM109 (pKK-RT66-P2C), then chemical alkylation
Protocol: Purified P2C/C38S/C280S p66/p66 RT was concentrated to approximately 20 μM (˜2.5 mg/ml) in 50 mM Tris-HCl buffer (pH 7.9 at 20° C.) containing 100 mM NaCl and 1 mM TCEP-HCl (Tris(2-carboxyethyl)phosphine hydrochloride (Pierce)) at room temperature. An aliquot of Eu-N1-iodoacetamido chelate protein-modification reagent (prepared as a 5 mM stock solution in DMSO) was added to provide an approximately 20-fold molar excess relative to the p66 subunit concentration. The alkylation reaction was allowed to proceed for up to 6 hours at room temperature. Alternatively, the reaction may be carried out overnight at 4° C. Upon completion of the reaction, an excess of DTT was added to consume unreacted Eu-N 1-iodoacetamido chelate. The alkylated p66/p66 RT was separated from the DTT-reagent conjugate by two passages through a NAPT™ 25 column equilibrated with a 25 mM Tris-HCl buffer (pH 7.5, 20° C.) containing 60 mM MgCl2 and 50% glycerol. The stoichiometry of labeling was generally found to be between 0.7-1 mol of Eu-N1-iodoacetamide per mol of p66 RT subunit (i.e., 1.5-2 mol/mol p66/p66 RT homodimer).

WT p66/p66 RT = molecular target: T3, WT p66/p66 RT (Human immunodeficiency virus type 1 group M subtype B, UniProt P04585); assay: Inhibition of WT p66/p66 RT (data not shown); assay type: biochemical, HIV-1
T3 construct: IPTG-dependent expression of the non-HIS-tagged 66 kDa RT subunit; made in house; host or cells: E. coli JM109 (pKK-RT66WT)
From the text: The P2C/C38S/C280S p66/p66 RT chemically alkylated with the Eu-N1-iodoacetamido chelate retains approximately 80% of the RDDP activity of the unmodified protein (Table 1). […] Thus, the genetic and chemical manipulations of RT required to prepare reagents for the dimerization assay appear to have little effect on the response of the enzyme within the parameters of the assay protocol.

[3] = molecular target: HIV-1 RT p66/p51 heterodimer (Human immunodeficiency virus type 1 group M subtype B, UniProt P04585, C625S/C867S/P588C); assay: TRF microplate assay of p66/p51 RT heterodimer formation; conditions: compound at 10 μM; dimer formation 6 h; urea diluted 3.5 M to 0.35 M
Protocol: The general principle of the assay involves mixing of His6x-p51 with fluorophore-labeled p66 RT in solution, with subsequent solid-phase capture of resulting His6x-p51/fluorophore-labeled p66 RT heterodimer on Ni^2+-NTA microplates. After washing to remove unbound material, the amount of microplate-associated fluorescence is measured in an appropriate fluorescence plate reader.
In a total volume of 20 μl, mix 100 pmol of purified His6x-p51 RT subunit and 200 pmol of Eu-N1-iodoacetamido chelate labeled p66 RT subunit (i.e., 100 pmol RT p66/p66 homodimer) with urea (prepared in 25 mM Tris-HCl pH 7.5, 20° C., containing 100 mM MgCl2) to provide a final concentration of 3.5 M urea. Incubate this mixture for 1 h at room temperature.
Dilute this solution into 200 μL of a solution of the compound of interest at 10 μM (in 25 mM Tris-HCl pH 7.5, 20° C., containing 50 mM Na2SO4) contained in a well of a 96-well Ni-NTA HiSorb Plate.
The dilution step provides a 10-fold dilution to reduce the urea concentration from 3.5M to 0.35M, thereby allowing formation of the RT p66/p51 heterodimer. Dimer formation is allowed to proceed for 6 h, then the plates are washed 3× with Delfia wash buffer containing 200 μM DTPA. After washing, 200 μL of the Delfia enhancement solution is added to each well, followed by incubation at room temperature for 30 minutes.

**Q.** Which “Effect on dimerization of the HIV-1 RT as reported” value (HIV-1 RT) does the source give for `Cc1ccnc2c1NC(=O)c1cccnc1N2C1CC1` [Nevirapine] here?
**A.** The value was “chemical enhancers of dimerization”.

**Q.** What does the source list for `CCn1c(=O)c(C)cn([C@@H]2O[C@H](CO[Si](C)(C)C(C)(C)C)C3(OS(=O)(=O)C=C3N)[C@H]2O[Si](C)(C)C(C)(C)C)c1=O` (some centres unmarked) [TSAOe3T]?
**A.** IC50 [1]: 3 µM; IC50 [2]: 3 µM; Sensitivity of WT p66/p66 RT to inhibition compared with unmodified P2C/C38S/C280S p66/p66 mutant (WT p66/p66 RT): equally sensitive

**Q.** Which “TRF signal relative to control (RT dimerization, FIG. 5B)” value [3] does the source give for `Cc1cn([C@@H]2O[C@H](CO[Si](C)(C)C(C)(C)C)[C@@]3(OS(=O)(=O)C=C3N)[C@H]2O[Si](C)(C)C(C)(C)C)c(=O)n(C)c1=O` [TSAOm^3T] here?
**A.** Its value is “decreases the signal”.
